According to ChEMBL document CHEMBL5331073, “Discovery of novel 7,7-dimethyl-6,7-dihydro-5H-pyrrolo[3,4-d]pyrimidines as ATR inhibitors based on structure-based drug design” (Eur J Med Chem, 2023):

Experiments:
[1] = target: T1, Serine/threonine-protein kinase ATR (Homo sapiens, UniProt Q13535); assay: Inhibition of ATR (unknown origin) using peptide as substrate at 0.1 uM preincubated for 10 mins followed by substrate addition by microplate reader analysis
Target sequence in this assay (Q13535 whole entry, looked up): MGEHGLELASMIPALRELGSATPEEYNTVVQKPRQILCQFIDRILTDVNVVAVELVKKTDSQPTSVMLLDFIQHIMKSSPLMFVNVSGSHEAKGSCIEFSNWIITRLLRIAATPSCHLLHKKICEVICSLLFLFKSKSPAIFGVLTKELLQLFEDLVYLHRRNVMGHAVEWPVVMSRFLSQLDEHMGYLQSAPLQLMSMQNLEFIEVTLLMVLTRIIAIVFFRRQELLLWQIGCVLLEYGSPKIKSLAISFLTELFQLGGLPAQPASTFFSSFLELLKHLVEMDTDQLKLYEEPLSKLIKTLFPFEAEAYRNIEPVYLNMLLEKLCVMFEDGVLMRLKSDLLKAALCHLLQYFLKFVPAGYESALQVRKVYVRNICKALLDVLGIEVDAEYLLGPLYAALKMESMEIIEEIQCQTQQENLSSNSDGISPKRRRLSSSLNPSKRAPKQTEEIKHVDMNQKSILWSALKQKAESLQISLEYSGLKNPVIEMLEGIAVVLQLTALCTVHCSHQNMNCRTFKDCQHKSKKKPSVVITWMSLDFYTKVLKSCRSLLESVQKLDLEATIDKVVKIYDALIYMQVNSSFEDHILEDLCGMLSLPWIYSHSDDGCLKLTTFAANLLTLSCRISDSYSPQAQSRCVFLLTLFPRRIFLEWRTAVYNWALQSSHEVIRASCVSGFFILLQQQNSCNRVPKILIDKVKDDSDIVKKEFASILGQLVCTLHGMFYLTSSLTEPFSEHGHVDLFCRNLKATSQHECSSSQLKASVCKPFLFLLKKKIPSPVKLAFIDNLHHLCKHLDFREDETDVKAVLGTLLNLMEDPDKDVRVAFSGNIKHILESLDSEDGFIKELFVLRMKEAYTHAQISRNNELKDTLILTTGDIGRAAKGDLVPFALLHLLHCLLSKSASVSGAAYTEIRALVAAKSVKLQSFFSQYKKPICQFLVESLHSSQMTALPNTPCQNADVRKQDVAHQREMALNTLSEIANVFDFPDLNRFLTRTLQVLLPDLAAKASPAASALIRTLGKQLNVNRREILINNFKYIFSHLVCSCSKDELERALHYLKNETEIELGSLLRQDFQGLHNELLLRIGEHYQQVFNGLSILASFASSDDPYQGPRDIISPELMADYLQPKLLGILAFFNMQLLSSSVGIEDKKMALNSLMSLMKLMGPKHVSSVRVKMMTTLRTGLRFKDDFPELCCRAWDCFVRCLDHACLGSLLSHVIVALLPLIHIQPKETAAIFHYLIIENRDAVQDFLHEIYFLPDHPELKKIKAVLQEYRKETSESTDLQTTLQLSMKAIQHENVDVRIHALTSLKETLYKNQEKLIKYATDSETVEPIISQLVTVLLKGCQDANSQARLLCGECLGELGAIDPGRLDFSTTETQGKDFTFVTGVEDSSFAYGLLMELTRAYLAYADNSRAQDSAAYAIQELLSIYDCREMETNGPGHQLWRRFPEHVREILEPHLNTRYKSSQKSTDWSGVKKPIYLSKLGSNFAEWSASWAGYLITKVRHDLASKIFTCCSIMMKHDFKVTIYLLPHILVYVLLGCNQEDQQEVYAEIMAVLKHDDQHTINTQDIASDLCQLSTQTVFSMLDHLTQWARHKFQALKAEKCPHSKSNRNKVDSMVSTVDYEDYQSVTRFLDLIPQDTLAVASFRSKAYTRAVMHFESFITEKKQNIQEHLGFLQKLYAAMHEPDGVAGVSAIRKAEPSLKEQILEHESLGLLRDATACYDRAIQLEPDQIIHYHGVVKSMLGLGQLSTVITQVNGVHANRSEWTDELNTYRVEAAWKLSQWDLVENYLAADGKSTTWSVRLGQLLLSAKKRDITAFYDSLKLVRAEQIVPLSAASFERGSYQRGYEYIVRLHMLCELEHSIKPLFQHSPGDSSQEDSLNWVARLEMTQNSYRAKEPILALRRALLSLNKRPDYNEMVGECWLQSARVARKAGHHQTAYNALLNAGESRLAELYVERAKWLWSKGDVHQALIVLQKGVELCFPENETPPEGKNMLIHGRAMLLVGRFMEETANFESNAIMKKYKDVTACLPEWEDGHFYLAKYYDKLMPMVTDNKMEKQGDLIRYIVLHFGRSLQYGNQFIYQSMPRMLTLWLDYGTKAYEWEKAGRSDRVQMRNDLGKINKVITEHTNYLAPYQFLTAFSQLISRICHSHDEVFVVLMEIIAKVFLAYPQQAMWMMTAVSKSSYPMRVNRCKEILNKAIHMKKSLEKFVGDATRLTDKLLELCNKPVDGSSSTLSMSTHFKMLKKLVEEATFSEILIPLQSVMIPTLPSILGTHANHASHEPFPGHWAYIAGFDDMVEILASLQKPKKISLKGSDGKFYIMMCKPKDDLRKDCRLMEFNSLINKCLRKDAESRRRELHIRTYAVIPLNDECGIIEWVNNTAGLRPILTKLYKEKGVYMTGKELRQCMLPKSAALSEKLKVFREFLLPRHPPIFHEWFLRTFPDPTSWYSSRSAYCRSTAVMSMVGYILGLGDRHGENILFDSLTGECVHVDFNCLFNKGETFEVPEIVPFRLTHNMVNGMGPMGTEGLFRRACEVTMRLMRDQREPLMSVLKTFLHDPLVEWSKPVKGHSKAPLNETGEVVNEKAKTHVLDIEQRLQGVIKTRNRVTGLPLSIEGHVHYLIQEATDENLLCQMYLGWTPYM

in vitro [2] = details: human, liver microsomes
in vitro [3] = details: rat, liver microsomes
LoVo [4] = assay: Antiproliferative activity against ATM-deficient human LoVo cells assessed as reduction in cell proliferation incubated for 3 days by MTT assay; format: functional, cell-based; details: 72 h
[5] = target: T1, Serine/threonine-protein kinase ATR; assay: Inhibition of ATR (unknown origin) using peptide as substrate preincubated for 10 mins followed by substrate addition by microplate reader analysis
Target sequence in this assay (Q13535 whole entry): as the sequence (Q13535 whole entry, looked up) above

in vitro [6] = details: human, liver microsomes; remark: listed apart in the source
HT-29 [7] = assay: Antiproliferative activity against ATM-proficient human HT-29 cells assessed as reduction in cell proliferation at 0.5 to 22 uM incubated for 3 days by MTT assay; format: functional, cell-based; details: dose 0.5-22 µM, time 3.0 day
HT-29 [8] = assay: Antiproliferative activity against ATM-proficient human HT-29 cells assessed as reduction in cell proliferation incubated for 3 days by MTT assay; format: functional, cell-based; details: HT-29, 72 h
in vitro [9] = details: human, liver microsomes; remark: listed apart in the source
LoVo [10] = assay: Antiproliferative activity against ATM-deficient human LoVo cells assessed as reduction in cell proliferation at 0.1 to 25 uM incubated for 3 days by MTT assay; format: functional, cell-based; details: dose 0.1-25 µM, time 3.0 day
in vitro [11] = details: rat, liver microsomes; remark: listed apart in the source
in vitro [12] = details: rat, liver microsomes; remark: listed apart in the source
[13] = target: Serine/threonine-protein kinase mTOR (Homo sapiens, UniProt P42345); assay: Inhibition of mTOR (unknown origin) using peptide as substrate preincubated for 10 mins followed by substrate addition by microplate reader analysis
HCT-116 = assay: Antiproliferative activity against ATM-proficient human HCT-116 cells assessed as reduction in cell viability incubated for 3 days by MTT assay; format: functional, cell-based; details: HCT-116, 72 h
A549 = assay: Antiproliferative activity against ATM-proficient human A549 cells assessed as reduction in cell viability incubated for 3 days by MTT assay; format: functional, cell-based; details: A549, 72 h
[14] = MRT (0 to infinity) in Sprague-Dawley rat at 1 mg/kg, iv and measured upto 24 hrs by LC-MS analysis; format: ADME, organism-based; details: in vivo
[15] = Tmax in Sprague-Dawley rat at 5 mg/kg, po and measured upto 24 hrs by LC-MS analysis; format: ADME, organism-based; details: in vivo
[16] = Cmax in Sprague-Dawley rat at 5 mg/kg, po and measured upto 24 hrs by LC-MS analysis; format: ADME, organism-based; parameters: time < 24 hrs, dose 5 mg/kg, route po; details: in vivo
[17] = Half life in Sprague-Dawley rat at 1 mg/kg, iv and measured upto 24 hrs by LC-MS analysis; format: ADME, organism-based; details: in vivo
[18] = AUC(0 to infinity) in Sprague-Dawley rat at 1 mg/kg, iv and measured upto 24 hrs by LC-MS analysis; format: ADME, organism-based; parameters: time < 24 hrs, dose 1 mg/kg, route iv; details: in vivo
[19] = Volume of distribution at steady state in Sprague-Dawley rat at 1 mg/kg, iv and measured upto 24 hrs by LC-MS analysis; format: ADME, organism-based; details: in vivo, read-out: Vdss
[20] = MRT(t) in Sprague-Dawley rat at 1 mg/kg, iv and measured upto 24 hrs by LC-MS analysis; format: ADME, organism-based; details: in vivo
[21] = Clearance in Sprague-Dawley rat at 1 mg/kg, iv and measured upto 24 hrs by LC-MS analysis; format: ADME, organism-based; details: in vivo
[22] = MRT(t) in Sprague-Dawley rat at 5 mg/kg, po and measured upto 24 hrs by LC-MS analysis; format: ADME, organism-based; details: in vivo
[23] = AUCt in Sprague-Dawley rat at 5 mg/kg, po and measured upto 24 hrs by LC-MS analysis; format: ADME, organism-based; parameters: time < 24 hrs, dose 5 mg/kg, route po; details: in vivo
[24] = MRT (0 to infinity) in Sprague-Dawley rat at 5 mg/kg, po and measured upto 24 hrs by LC-MS analysis; format: ADME, organism-based; details: in vivo
[25] = Half life in Sprague-Dawley rat at 5 mg/kg, po and measured upto 24 hrs by LC-MS analysis; format: ADME, organism-based; details: in vivo
[26] = AUCt in Sprague-Dawley rat at 1 mg/kg, iv and measured upto 24 hrs by LC-MS analysis; format: ADME, organism-based; parameters: dose 1 mg/kg, time < 24 hrs, route iv; details: in vivo
[27] = Oral bioavailability in Sprague-Dawley rat at 5 mg/kg and measured upto 24 hrs by LC-MS analysis; format: ADME, organism-based; details: in vivo
[28] = AUC (0 to infinity) in Sprague-Dawley rat at 5 mg/kg, po and measured upto 24 hrs by LC-MS analysis; format: ADME, organism-based; parameters: time < 24 hrs, dose 5 mg/kg, route po; details: in vivo

Question: Which inhibition [1] does the source give for `C[C@@H]1COCCN1c1nc(-c2cccc3[nH]ccc23)nc2c1CCN(Cc1ccccc1)C2(C)C` here?
Answer: 14.6%

Question: With `CC(=O)c1ccc(C(=O)N2Cc3c(N4CCOC[C@H]4C)nc(-c4cccc5[nH]ccc45)nc3C2(C)C)cc1` as the compound, how does the half-life at 1 h, 1 µM (in vitro [2]) read?
Answer: 0.0823 h

Question: And the CLint scaled at 1 h, 1 µM (in vitro [3])?
Answer: 51.4 mL/min/kg

Question: What about the IC50 (LoVo [4]) of the same compound?
Answer: 96 nM

Question: And the IC50 [5]?
Answer: 6 nM

Question: And the microsomal CLint at 1 h, 1 µM (in vitro [6])?
Answer: 281 µL/min/mg

Question: And the Activity (HT-29 [7])?
Answer: Dose-Dependent Effect

Question: What about the IC50 (HT-29 [8]) of the same compound?
Answer: 307 nM

Question: And the CLint scaled at 1 h, 1 µM (in vitro [9])?
Answer: 265 mL/min/kg

Question: What about the Activity (LoVo [10]) of the same compound?
Answer: Dose-Dependent Effect

Question: What about the half-life at 1 h, 1 µM (in vitro [11]) of the same compound?
Answer: 0.812 h

Question: And the microsomal CLint at 1 h, 1 µM (in vitro [12])?
Answer: 28.5 µL/min/mg

Question: Which results are given for `C[C@@H]1COCCN1c1nc(-c2cccc3[nH]ccc23)nc2c1CCN(S(C)(=O)=O)C2(C)C`?
Answer: inhibition [1]: 88.7%; IC50 [13]: 157 nM; IC50 [5]: 18 nM

Question: What does the source list for `CC(=O)c1cccc(C(=O)N2Cc3c(N4CCOC[C@H]4C)nc(-c4cccc5[nH]ccc45)nc3C2(C)C)c1`?
Answer: half-life at 1 h, 1 µM (in vitro [2]): 0.0685 h; CLint scaled at 1 h, 1 µM (in vitro [3]): 218 mL/min/kg; IC50 (LoVo [4]): 112 nM; IC50 [5]: 4 nM; microsomal CLint at 1 h, 1 µM (in vitro [6]): 339 µL/min/mg; Activity (HT-29 [7]): Dose-Dependent Effect; IC50 (HT-29 [8]): 431 nM; CLint scaled at 1 h, 1 µM (in vitro [9]): 320 mL/min/kg; Activity (LoVo [10]): Dose-Dependent Effect; half-life at 1 h, 1 µM (in vitro [11]): 0.192 h; microsomal CLint at 1 h, 1 µM (in vitro [12]): 121 µL/min/mg

Question: For `CC(C)n1c(=O)n(C)c2cnc3cc(F)c(-c4ccc(OCCCN5CCCCC5)nc4)cc3c21` [AZD-1390], which IC50 (HCT-116) is on record?
Answer: 10500 nM

Question: And the IC50 (A549)?
Answer: 43000 nM

Question: What about the IC50 (HT-29 [8]) of the same compound?
Answer: > 30000 nM

Question: For `COc1cccc(C(=O)N2Cc3c(N4CCOC[C@H]4C)nc(-c4cccc5[nH]ccc45)nc3C2(C)C)c1`, which MRT inf [14] is on record?
Answer: 1.08 h

Question: And the Tmax [15]?
Answer: 0.667 h

Question: What about the half-life at 1 h, 1 µM (in vitro [2]) of the same compound?
Answer: 0.447 h

Question: What about the Cmax [16] of the same compound?
Answer: 86.2 ng/mL

Question: What about the half-life [17] of the same compound?
Answer: 1.28 h

Question: And the AUC(0-inf) [18]?
Answer: 840 ng·h/mL

Question: And the CLint scaled at 1 h, 1 µM (in vitro [3])?
Answer: 36.2 mL/min/kg

Question: And the Vd [19]?
Answer: 1.3 L/kg

Question: What about the MRT last at 24 h [20] of the same compound?
Answer: 1.02 h

Question: And the clearance [21]?
Answer: 20.1 mL/min/kg

Question: What about the MRT last at 24 h [22] of the same compound?
Answer: 2.7 h

Question: What about the IC50 (LoVo [4]) of the same compound?
Answer: 151 nM

Question: And the IC50 [5]?
Answer: 4 nM

Question: And the AUC(0-t) at 24 h [23]?
Answer: 323 ng·h/mL

Question: What about the microsomal CLint at 1 h, 1 µM (in vitro [6]) of the same compound?
Answer: 51.6 µL/min/mg

Question: And the MRT inf [24]?
Answer: 3.08 h

Question: What about the half-life [25] of the same compound?
Answer: 1.87 h

Question: What about the AUC(0-t) at 24 h [26] of the same compound?
Answer: 835 ng·h/mL

Question: What about the IC50 (HT-29 [8]) of the same compound?
Answer: 357 nM

Question: What about the bioavailability [27] of the same compound?
Answer: 8.1%

Question: And the CLint scaled at 1 h, 1 µM (in vitro [9])?
Answer: 48.8 mL/min/kg

Question: What about the AUC(0-inf) [28] of the same compound?
Answer: 342 ng·h/mL

Question: What about the half-life at 1 h, 1 µM (in vitro [11]) of the same compound?
Answer: 1.17 h

Question: And the microsomal CLint at 1 h, 1 µM (in vitro [12])?
Answer: 20.1 µL/min/mg
